Calls of active or inactive are those of the source. Bridge positions count the residues as written; N and C are the ends. Square brackets hold non-standard residues; d marks the D form. Peptide text beside a SMILES is read from it. * marks the point of attachment. X1 = CCC(C)C(N)C1=NC(C(=O)*)CS1; dOrn = NCCC[C@@H](N)C(=O)O
What was measured:
[1] = target: T1, DNA repair and recombination protein RAD54-like (Homo sapiens, UniProt Q92698); test: inhibitors of human RAD54 branch migration, confirmation, biochemical, fluorescence, cherry-picked samples, dose series (AID 651657); type: functional
T1 sequence (Q92698 whole entry): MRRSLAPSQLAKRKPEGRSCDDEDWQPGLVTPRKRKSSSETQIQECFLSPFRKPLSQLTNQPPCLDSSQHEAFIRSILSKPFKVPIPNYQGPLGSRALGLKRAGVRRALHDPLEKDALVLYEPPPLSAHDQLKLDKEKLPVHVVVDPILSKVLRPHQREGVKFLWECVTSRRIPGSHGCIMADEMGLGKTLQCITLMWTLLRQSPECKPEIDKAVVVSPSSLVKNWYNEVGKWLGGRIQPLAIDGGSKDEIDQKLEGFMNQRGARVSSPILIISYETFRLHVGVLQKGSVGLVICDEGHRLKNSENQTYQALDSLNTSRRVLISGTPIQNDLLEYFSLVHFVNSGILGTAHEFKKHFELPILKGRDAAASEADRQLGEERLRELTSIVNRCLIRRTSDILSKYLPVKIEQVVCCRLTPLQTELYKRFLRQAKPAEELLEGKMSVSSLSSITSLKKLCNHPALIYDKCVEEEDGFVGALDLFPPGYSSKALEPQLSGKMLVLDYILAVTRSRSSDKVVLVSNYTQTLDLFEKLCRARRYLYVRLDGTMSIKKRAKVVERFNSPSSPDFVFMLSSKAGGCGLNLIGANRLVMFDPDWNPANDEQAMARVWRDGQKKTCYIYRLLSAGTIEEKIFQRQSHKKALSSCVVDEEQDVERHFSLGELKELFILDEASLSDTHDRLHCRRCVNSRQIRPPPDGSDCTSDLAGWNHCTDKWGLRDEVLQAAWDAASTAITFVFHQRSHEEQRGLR

[2] = target: T2, RNA-binding protein pos-1 (Caenorhabditis elegans, UniProt G5EF15); test: inhibitors of POS-1/mex-3 RNA binding, dose response, biochemical, fluorescence polarization (AID 1964);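 further: purified POS-1 fused to maltose binding protein made in E. coli; potency of compounds blocking POS-1 binding to fluorescent RNA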
T2 sequence (G5EF15 whole entry): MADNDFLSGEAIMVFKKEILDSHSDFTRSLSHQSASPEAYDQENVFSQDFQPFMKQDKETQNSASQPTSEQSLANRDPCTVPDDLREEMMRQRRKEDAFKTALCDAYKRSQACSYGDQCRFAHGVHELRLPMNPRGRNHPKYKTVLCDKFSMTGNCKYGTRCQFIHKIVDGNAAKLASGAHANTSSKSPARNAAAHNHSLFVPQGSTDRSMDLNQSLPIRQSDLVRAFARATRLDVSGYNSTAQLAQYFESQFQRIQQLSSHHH

[3] = target: T3, Zinc finger protein mex-5 (Caenorhabditis elegans, UniProt Q9XUB2); test: MEX-5/TCR-2 RNA interaction inhibitors, dose response, biochemical, C. elegans, fluorescence polarization (AID 1960)
T3 sequence (Q9XUB2 whole entry): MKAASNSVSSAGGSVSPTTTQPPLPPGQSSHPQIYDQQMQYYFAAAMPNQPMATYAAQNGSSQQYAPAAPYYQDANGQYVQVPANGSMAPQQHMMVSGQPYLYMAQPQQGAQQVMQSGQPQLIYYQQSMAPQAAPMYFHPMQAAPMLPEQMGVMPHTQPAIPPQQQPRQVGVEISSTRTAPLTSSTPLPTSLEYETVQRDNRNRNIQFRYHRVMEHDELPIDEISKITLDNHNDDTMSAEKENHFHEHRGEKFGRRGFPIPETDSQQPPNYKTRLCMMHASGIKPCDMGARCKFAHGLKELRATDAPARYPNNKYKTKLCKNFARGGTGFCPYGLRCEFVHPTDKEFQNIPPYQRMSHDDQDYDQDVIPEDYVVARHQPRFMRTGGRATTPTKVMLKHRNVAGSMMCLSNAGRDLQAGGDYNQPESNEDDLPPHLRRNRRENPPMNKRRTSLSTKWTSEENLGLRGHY

Protein Wnt-3a = Protein Wnt-3a (Mus musculus, UniProt P27467); test: Wnt3a-driven reporter signaling inhibition, dose response, selectivity assay for Gli-SUFU antagonist project, Wnt-LIGHT cells, luminescence (AID 651570); type: functional; settings: read-out: IC50_Mean;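 further: Wnt-LIGHT reporter cells stimulated with conditioned medium from Wnt3a-producing cells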
Protein Wnt-3a, sequence (P27467 whole entry): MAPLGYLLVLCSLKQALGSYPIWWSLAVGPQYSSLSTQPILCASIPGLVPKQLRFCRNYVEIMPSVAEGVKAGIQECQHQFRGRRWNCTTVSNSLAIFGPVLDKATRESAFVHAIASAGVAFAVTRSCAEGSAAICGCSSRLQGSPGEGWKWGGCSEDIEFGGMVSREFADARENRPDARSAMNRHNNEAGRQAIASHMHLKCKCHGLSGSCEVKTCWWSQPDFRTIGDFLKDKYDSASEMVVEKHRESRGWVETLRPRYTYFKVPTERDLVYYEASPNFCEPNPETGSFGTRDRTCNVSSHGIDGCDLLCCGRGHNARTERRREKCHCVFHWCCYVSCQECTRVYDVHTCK

[4] = microbe, parasite or virus in culture; type: functional; settings: Mycobacterium tuberculosis
[5] = target: T4, Corticotropin-releasing factor receptor 2/Corticotropin-releasing factor-binding protein (Homo sapiens, UniProt P24387+Q13324); test: Dose Response confirmation of uHTS hits for small molecule antagonists of the CRF-binding protein and CRF-R2 receptor complex.; type: functional; settings: read-out: IC50_Mean
T4 sequence (Q13324 whole entry): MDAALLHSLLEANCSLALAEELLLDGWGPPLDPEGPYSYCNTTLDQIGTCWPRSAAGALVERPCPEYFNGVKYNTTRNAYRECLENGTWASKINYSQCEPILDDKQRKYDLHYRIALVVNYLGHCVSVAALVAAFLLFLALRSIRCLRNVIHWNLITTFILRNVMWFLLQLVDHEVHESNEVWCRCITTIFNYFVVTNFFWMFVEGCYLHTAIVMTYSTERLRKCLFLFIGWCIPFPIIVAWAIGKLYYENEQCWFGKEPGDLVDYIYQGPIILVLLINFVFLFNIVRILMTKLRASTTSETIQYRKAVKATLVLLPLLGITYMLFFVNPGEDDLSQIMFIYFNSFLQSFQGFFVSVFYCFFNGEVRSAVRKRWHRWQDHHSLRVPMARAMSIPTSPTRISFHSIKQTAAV
T4 sequence (P24387 whole entry): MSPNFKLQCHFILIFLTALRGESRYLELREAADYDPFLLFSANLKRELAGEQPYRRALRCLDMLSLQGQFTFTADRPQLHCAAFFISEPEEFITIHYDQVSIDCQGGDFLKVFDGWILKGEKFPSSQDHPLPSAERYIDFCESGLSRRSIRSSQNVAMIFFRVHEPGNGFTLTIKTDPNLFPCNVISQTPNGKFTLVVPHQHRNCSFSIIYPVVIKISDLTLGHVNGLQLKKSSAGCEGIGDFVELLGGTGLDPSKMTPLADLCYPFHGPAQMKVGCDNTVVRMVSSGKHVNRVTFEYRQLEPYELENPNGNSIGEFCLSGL

[6] = target: T4, Corticotropin-releasing factor receptor 2/Corticotropin-releasing factor-binding protein; test: activators of CRF receptor 2 with binding protein – uHTS hits, confirmation (AID 602473); type: functional; settings: read-out: EC50_Mean
[7] = CRF-BP/CRF-R2 complex antagonists, dose response, cell-based, uHTS hits, 384-well (AID 651639); type: functional, Homo sapiens; settings: read-out: IC50_Mean
[8] = control 3'UTR Renilla luciferase suppression, dose response, counter-screen for Shn3 inhibitor project, cell-based, Clone20-Shn3RL, cherry-picked (AID 624133); type: functional
[9] = inhibitors of intracellular T. cruzi replication, confirmation, NIH3T3 host cells, beta-gal luminescence (AID 2044); type: functional, cell-based;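 further: intracellular parasites grown in NIH/3T3 mouse fibroblasts as host cells; luminescent beta-galactosidase reporter signal from transgenic T. cruzi replicating inside host cells; inhibitors lower the luminescence signal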
[10] = Shn3 3'UTR reporter inhibitors, dose response, cell-based, Clone20 osteoblasts, firefly luciferase, cherry-picked (AID 624132); type: functional;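 further: firefly luciferase luminescence from reporter carrying the Shn3 3'UTR in osteoblasts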
[11] = HepG2 cell cytotoxicity, dose response, cytotoxicity control for Shn3 inhibitor project, CellTiter-Glo, cherry-picked (AID 624134); type: functional, cell-based
[12] = target: Glucose-6-phosphate 1-dehydrogenase (Homo sapiens, UniProt P11413); test: human G6PD enzyme inhibitors, dose response, selectivity assay for P. falciparum G6PD inhibitor project, biochemical, fluorescence (AID 504792); type: functional
Glucose-6-phosphate 1-dehydrogenase, sequence (P11413 whole entry): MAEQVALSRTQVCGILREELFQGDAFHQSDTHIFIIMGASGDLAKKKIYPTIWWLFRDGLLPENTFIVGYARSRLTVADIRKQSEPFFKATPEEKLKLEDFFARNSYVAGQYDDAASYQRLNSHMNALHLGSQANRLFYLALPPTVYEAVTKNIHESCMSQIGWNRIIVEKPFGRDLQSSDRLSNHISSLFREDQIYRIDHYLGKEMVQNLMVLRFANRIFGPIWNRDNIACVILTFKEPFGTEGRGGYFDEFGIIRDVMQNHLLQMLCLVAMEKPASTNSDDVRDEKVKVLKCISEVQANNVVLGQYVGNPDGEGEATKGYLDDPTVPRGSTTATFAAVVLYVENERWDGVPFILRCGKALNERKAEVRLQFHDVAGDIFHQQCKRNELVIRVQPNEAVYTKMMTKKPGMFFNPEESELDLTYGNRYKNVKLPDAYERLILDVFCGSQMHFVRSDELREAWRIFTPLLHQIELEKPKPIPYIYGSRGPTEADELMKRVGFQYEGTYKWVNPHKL

[13] = target: T5, Endoribonuclease toxin MazF (Escherichia coli K-12, UniProt P0AE70); test: MazF toxin RNase activators, dose response, biochemical, fluorescence, single-stranded RNA substrate, uHTS hits (AID 588481); type: functional
T5 sequence (P0AE70 whole entry): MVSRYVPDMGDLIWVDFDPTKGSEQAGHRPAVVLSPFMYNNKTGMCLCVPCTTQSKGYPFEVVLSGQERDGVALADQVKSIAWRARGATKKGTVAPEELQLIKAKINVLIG

[14] = target: T5, Endoribonuclease toxin MazF; test: fluorescent RNA oligo signal without MazF, dose response, counter-screen for MazEF activator project, biochemical, fluorescence, single-stranded RNase substrate (AID 588502); type: functional
[15] = target: Luciferin 4-monooxygenase (Photinus pyralis, UniProt P08659); test: firefly luciferase enzyme inhibitors, dose response, biochemical, luminescence (AID 1891)
Luciferin 4-monooxygenase, sequence (P08659 whole entry): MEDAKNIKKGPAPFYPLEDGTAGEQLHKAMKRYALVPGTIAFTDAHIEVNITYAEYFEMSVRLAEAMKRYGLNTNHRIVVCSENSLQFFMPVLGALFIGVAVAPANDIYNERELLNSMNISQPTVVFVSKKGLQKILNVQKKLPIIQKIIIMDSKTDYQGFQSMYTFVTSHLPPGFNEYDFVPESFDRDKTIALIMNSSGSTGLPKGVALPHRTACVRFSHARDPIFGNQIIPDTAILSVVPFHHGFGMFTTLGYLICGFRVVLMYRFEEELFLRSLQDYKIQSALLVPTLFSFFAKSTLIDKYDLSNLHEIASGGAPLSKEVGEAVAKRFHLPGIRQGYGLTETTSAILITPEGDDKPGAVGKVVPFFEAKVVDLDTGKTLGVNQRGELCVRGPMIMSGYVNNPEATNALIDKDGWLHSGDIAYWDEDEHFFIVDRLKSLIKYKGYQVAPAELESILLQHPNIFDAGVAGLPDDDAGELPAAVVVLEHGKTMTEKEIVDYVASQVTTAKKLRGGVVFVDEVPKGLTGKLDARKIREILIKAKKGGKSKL

[16] = Luminescence Cell-Based Dose Confirmation HTS to Identify Inhibitors of Platelet Dense Granule Release. [Related pubchem assays: 1663 (Primary HTS), 1678 (Summary of Project)]; type: functional
[17] = target: T6, Polyadenylate-binding protein 1 (Homo sapiens, UniProt P11940); test: PABP1 MLLE–PAM2 binding inhibitor potency, dose response, biochemical, fluorescence polarization, FITC-PAM2 peptide (AID 602259); type: functional; settings: read-out: IC50_Mean
T6 sequence (P11940 whole entry): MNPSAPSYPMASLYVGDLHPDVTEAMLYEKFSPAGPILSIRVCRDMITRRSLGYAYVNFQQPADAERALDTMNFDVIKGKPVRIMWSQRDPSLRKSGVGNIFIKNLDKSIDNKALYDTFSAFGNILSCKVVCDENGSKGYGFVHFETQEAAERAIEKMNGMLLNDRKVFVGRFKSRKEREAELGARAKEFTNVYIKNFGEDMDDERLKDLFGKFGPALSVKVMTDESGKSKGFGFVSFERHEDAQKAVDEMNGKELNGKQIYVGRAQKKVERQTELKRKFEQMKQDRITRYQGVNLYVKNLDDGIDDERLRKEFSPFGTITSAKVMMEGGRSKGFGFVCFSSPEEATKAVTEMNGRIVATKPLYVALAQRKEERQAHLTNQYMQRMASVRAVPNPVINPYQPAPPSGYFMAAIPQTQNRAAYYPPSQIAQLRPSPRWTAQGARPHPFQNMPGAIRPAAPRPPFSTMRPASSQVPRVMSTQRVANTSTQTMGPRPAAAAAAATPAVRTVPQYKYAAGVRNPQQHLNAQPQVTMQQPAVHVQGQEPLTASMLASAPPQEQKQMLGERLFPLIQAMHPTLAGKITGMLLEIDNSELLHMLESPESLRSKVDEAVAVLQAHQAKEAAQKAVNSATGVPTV

[18] = target: T6, Polyadenylate-binding protein 1; test: PABP1 MLLE–PAM2 interaction inhibitors, dose response, miRNA deadenylation inhibitor project, biochemical, fluorescence polarization, Cy5-PAM2 peptide, secondary (AID 602260); type: functional; settings: read-out: IC50_Mean
[19] = target: DNA dC->dU-editing enzyme APOBEC-3A (Homo sapiens, UniProt P31941); test: SAR analysis of small molecule inhibitors of APOBEC3A DNA Deaminase via a fluorescence-based single-stranded DNA deaminase assay.; type: functional; settings: read-out: IC50_Mean
DNA dC->dU-editing enzyme APOBEC-3A, sequence (P31941 whole entry): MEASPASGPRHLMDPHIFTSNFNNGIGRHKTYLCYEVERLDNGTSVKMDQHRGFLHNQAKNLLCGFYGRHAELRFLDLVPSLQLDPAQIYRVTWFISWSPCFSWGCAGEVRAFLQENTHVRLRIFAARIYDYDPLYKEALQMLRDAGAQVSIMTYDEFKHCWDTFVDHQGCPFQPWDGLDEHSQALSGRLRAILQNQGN

[20] = target: DNA dC->dU-editing enzyme APOBEC-3G (Homo sapiens, UniProt Q9HC16); test: APOBEC3G deaminase inhibitors, SAR follow-up, biochemical, fluorescence, single-stranded DNA substrate (AID 602136); type: functional; settings: read-out: IC50_Mean
DNA dC->dU-editing enzyme APOBEC-3G, sequence (Q9HC16 whole entry): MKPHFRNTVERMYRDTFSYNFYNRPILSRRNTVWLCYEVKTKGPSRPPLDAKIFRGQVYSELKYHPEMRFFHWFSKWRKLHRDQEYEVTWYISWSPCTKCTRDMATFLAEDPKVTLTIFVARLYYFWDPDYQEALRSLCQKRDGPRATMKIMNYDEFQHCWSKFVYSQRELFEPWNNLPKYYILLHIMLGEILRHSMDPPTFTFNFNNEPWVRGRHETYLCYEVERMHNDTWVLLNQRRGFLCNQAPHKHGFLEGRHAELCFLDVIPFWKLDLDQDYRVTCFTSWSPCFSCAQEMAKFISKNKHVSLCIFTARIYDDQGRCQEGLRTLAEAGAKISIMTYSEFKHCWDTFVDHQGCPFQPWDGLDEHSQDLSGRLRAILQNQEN

[21] = intracellular Trypanosoma cruzi inhibitors in host cells – cell-based, plate reader, cherry-pick samples, set 3, dose response (AID 651818); type: functional;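 further: compounds incubated with infected cells for about four days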
[22] = target: Voltage-gated inwardly rectifying potassium channel KCNH2 (Homo sapiens, UniProt Q12809); settings: Potency;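 further: confirmatory quantitative high-throughput screen measuring inhibition of hERG channel activity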
Voltage-gated inwardly rectifying potassium channel KCNH2, sequence (Q12809 whole entry): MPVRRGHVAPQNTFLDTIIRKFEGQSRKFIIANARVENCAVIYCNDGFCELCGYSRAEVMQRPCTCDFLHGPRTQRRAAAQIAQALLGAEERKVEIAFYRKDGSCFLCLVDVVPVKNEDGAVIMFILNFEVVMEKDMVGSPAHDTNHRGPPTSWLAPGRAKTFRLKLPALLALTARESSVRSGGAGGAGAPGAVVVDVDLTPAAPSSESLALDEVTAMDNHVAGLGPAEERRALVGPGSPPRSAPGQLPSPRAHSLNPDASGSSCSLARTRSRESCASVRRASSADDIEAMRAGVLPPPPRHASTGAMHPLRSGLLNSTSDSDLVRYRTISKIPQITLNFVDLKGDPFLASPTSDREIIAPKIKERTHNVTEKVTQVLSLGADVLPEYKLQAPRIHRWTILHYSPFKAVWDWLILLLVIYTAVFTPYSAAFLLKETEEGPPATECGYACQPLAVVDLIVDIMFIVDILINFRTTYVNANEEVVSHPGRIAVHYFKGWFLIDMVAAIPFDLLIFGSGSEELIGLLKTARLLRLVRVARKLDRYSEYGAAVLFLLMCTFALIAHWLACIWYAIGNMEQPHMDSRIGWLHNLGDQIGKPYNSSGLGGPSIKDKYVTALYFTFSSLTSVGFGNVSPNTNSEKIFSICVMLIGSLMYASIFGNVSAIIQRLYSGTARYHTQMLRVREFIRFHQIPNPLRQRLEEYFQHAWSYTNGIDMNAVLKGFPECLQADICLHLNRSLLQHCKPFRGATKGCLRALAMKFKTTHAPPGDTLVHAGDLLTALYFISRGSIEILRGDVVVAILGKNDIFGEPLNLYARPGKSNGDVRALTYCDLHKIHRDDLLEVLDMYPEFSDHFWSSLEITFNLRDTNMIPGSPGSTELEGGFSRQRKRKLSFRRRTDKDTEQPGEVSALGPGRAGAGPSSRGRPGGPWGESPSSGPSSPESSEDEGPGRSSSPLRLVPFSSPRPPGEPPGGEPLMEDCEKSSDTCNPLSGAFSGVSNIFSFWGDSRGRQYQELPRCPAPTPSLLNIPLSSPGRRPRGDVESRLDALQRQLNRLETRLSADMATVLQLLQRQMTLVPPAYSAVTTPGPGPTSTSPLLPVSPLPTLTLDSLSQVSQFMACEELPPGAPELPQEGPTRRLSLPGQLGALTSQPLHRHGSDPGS

Cytochrome P450 3A4 = Cytochrome P450 3A4 (Homo sapiens, UniProt P08684); settings: Potency;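 further: confirmatory qHTS run detecting inhibitors and substrates of CYP3A4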
Cytochrome P450 3A4, sequence (P08684 whole entry): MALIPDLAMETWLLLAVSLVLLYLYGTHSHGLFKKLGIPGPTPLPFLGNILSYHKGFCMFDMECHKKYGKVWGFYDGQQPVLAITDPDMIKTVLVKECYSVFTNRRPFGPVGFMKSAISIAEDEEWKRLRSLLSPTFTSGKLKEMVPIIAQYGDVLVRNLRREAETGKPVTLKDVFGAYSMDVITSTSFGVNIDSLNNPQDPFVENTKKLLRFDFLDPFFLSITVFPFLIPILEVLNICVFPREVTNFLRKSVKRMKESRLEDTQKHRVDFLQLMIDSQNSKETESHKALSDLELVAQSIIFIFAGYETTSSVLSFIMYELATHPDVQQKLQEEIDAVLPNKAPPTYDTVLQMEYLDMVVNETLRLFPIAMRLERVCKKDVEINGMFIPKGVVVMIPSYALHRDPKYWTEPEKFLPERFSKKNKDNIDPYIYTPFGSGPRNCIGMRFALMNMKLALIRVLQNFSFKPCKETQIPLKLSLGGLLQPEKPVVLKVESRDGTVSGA

COc1ccc(CCNC(=O)c2cc3c(=O)n4cccc(C)c4nc3n(CCCN3CCOCC3)c2=N)cc1
AC50 [1]: 16.2 µM (active)
EC50 [2]: 66.4 µM (active)
EC50 [3]: 192 µM (active)

FC(F)Oc1ccc(-c2cn3c([n+]2-c2ccccc2)CCCCC3)cc1
IC50 (Protein Wnt-3a): 3.83 µM (active)

COc1ccc(CCNc2nc(N3CCCCC3)nc(N3CCCCC3)n2)cc1OC
CC50 [4]: > 40 µM (active)
IC50 [5]: 7.8 µM (active)
EC50 [6]: > 53 µM (inactive)
IC50 [7]: > 20 µM (inactive)

CC(=O)Nc1ccc(S(=O)(=O)N(Cc2ccccc2)C(C)C)cc1
IC50 (Protein Wnt-3a): 22.1 µM (inactive)

Cc1nn(-c2cccc(Cl)c2)c2nc(C(F)(F)F)nc(O)c12
IC50 [7]: 17.8 µM (active)

O=C(c1cc2nc(-c3ccc(F)cc3)cc(C(F)(F)F)n2n1)N1CCCCC1c1cccnc1 (centres undefined)
AC50 [8]: 2.12 µM (active)
CC50 [4]: > 40 µM (active)
EC50 [9]: 0.164 µM (active)
AC50 [10]: 2.37 µM (active)
AC50 [11]: 5.1 µM (active)
IC50 (Protein Wnt-3a): 3.57 µM (active)

O=c1[nH]nc(CNc2ccc(O)cc2)c2ccccc12
EC50 [2]: 11.8 µM (active)
IC50 [12]: > 80 µM (inactive)
EC50 [13]: > 99 µM (inactive)
EC50 [14]: > 99 µM (inactive)
EC50 [3]: 15.3 µM (inconclusive)

O=C(N=CNOCc1ccc(Cl)cc1Cl)NOCc1c(Cl)cccc1Cl
EC50 [15]: > 112 µM (not active)
EC50 [13]: > 99 µM (inactive)
EC50 [16]: > 112 µM (not active)
EC50 [14]: > 99 µM (inactive)

CN1CCN(CCNC(=O)c2cc3c(=O)n(C)c4ccccc4c3n2C)CC1
AC50 [1]: 35.3 µM (active)

CCOc1ccc(/N=C/C=C(/O)c2ccc(OC)cc2)c([N+](=O)[O-])c1
EC50 [13]: > 99 µM (inactive)
EC50 [14]: 6.29 µM (active)
IC50 [17]: > 66 µM (inactive)
IC50 [18]: > 66 µM (inactive)

CCC(C(=O)Nc1nnc(SCCOC)s1)c1ccccc1 (centres undefined)
IC50 [19]: > 99 µM (inactive)
IC50 [20]: > 99 µM (inactive)

Cc1ccc(CC(=O)Nc2nnc(-c3ccncc3)s2)cc1
IC50 [19]: > 99 µM (inactive)
IC50 [20]: > 99 µM (inactive)

CCc1ccc(Nc2nc(Nc3cccc(OC)c3)nc(N3CCOCC3)n2)cc1
IC50 [19]: > 99 µM (inactive)
IC50 [20]: 47.7 µM (inactive)

Cc1ccc(S(=O)(=O)N(C)C[C@H]2Oc3ccc(NS(=O)(=O)c4cccs4)cc3CC(=O)N([C@H](C)CO)C[C@H]2C)cc1
AC50 [21]: 2.05 µM (active)

COc1ccc(NC(=O)Nc2cccc3c2O[C@@H](CN(C)Cc2ccc(C(=O)Nc4ccccc4N)cc2)[C@H](C)CN([C@@H](C)CO)C3=O)cc1
AC50 [21]: 0.535 µM (active)

COc1ccc(S(=O)(=O)Nc2cccc3c2O[C@H](CN(C)Cc2ccc(C(=O)Nc4ccccc4N)cc2)[C@@H](C)CN([C@H](C)CO)C3=O)cc1
AC50 [21]: 4.11 µM (active)

CCC(C)C(N)C1=NC(C(=O)N[C@@H](CC(C)C)C(=O)N[C@H](CCC(=O)O)C(=O)N[C@H](C(=O)N[C@H]2CCCCNC(=O)[C@H](CC(N)=O)NC(=O)[C@@H](CC(=O)O)NC(=O)[C@H](Cc3c[nH]cn3)NC(=O)[C@@H](Cc3ccccc3)NC(=O)[C@H]([C@@H](C)CC)NC(=O)[C@@H](CCCN)NC2=O)[C@@H](C)CC)CS1 (some centres undefined) (X1-L[dE]IK[dOrn]I[dF]H[dD]N; lactam 4-C)
EC50 [13]: 30.8 µM (inactive)
EC50 [14]: 4.71 µM (active)

CNC(=O)OCC[N+](C)(C)C [METHYLCARBAMYLCHOLINE CHLORIDE]
AC50 [22]: 35.5 µM (inconclusive)

CCCN(CCC)c1c([N+](=O)[O-])cc(C(F)(F)F)cc1[N+](=O)[O-] [TRIFLURALIN]
AC50 [22]: 14.1 µM (inconclusive)
AC50 (Cytochrome P450 3A4): 15.8 µM (inconclusive)

Reference: ChEMBL document CHEMBL1201862, “PubChem BioAssay data set” (2004)
